According to article PMC2770896, “Inhibition of Neuraminidase Inhibitor-Resistant Influenza Virus by DAS181, a Novel Sialidase Fusion Protein” (PLoS ONE, 2009):
Like-named read-outs stand apart in the source and are kept apart here.

Assays:
[1] = biological target: NA enzymatic activity of A/Georgia/20/2006 H274Y (Influenza A virus (H1N1), UniProt B1AGS8); test: biochemical; format: biochemical
[2] = biological target: NA enzymatic activity of A/New Jersey/15/2007 (Influenza A virus (H1N1), UniProt D5F1R0, H275Y); format: biochemical, IFV A (H1N1); conditions: for R/S: A/New Jersey/15/2007, NI assay
[3] = biological target: NA enzymatic activity of A/St.Louis/758/09 (Influenza A virus, UniProt D0FH51, S5N); test: biochemical; format: biochemical, IFV A (H1N1); conditions: for R/S: NI assay
[4] = test system: A/Victoria/3/75 (H3N2) with A28T(HA) and R292K(NA) mutations; conditions: cited from earlier work

SMILES | R/S [1] | IC50 ([1]; read-out: IC50) [nM] | R/S [2] | IC50 ([2]; A/New Jersey/15/2007 reference virus, mean of triplicate analysis) [nM] | R/S ([3]; A/St.Louis/758/09) | IC50 ([3]; A/St.Louis/758/09, mean of triplicate analysis, read-out: IC50) [nM] | Resistance [4] [fold] | IC50 [1] [nM] | IC50 [3] [nM]
CCC(CC)O[C@@H]1C=C(C(=O)O)C[C@H](N)[C@H]1NC(C)=O [oseltamivir, oseltamivir carboxylate] | R | 192 | R | 124 | R | 88.4 | 3230 |  | 
CC(=O)N[C@H]1[C@H]([C@H](O)[C@H](O)CO)OC(C(=O)O)=C[C@@H]1N=C(N)N [zanamivir] | S |  | S |  | S |  | 60 | 0.57 | 0.34
